Common to all, as to format: physicochemical
Series [1] can be described thus: Polymorph screening experiments (XRPD of returned solids). As to conditions: conclusion of screening experiments. The protocol: A solvent solubility screen was carried out on the farudodstat DSP polymorph (also referred to as CS-276-22 in the following examples) to determine its solubility in various solvents, and to gain an initial assessment of the polymorphic landscape. To ˜20 mg samples of predominantly amorphous farudodstat, aliquots (2×50 μL and then 100 μL) of the chosen solvents were added until dissolution was observed, or 2 mL had been added. The samples were manually agitated and heated to ˜40° C. in a block attached to a water bath in between each aliquot Clear solutions were uncapped and allowed to evaporate at room temperature. Any solids obtained from slurries and from evaporation were analysed by X-ray powder diffraction (XRPD).
16×20 mg of the farudodstat DSP polymorph sample was weighed into 2 mL bead mill vials and was milled for 1.5 hrs for amorphization. Next, 5 μL of appropriate solvents (see Table 6) were added to each sample. The samples were then bead milled using the following procedure: • 1. 2 stainless steel beads were added to each vial. • 2. 4500 rpm • 3. 10×90 s cycles • 4. 10 s hold between each cycle • 5. Repeated 4× to give 1 hr milling time
16×20 mg of farudodstat sample was first weighed into 2 mL bead mill vials and was milled to prepare amorphous material. To all the […] bead milled samples, appropriate solvents (see Table 6) were added in 100 μL aliquots until a mobile slurry was obtained without any dissolution observed. Between additions, the samples were stirred at 40° C. Samples were then stirred, and temperature cycled between 5-40° C. (0.1° C./min heating/cooling rate, 1 hour hold at each temperature) for ˜72 hours.
After 48 hours, samples were checked. If necessary, additional solids added. Non-mobile solid in solution samples were agitated using a spatula until a mobile slurry was obtained. Slurries were isolated by centrifugation ([…] nylon filters) and the solids analysed by XRPD. Post XRPD analysis, the XRPD plate was dried at 40° C. under vacuum for 48 hours and the solids reanalysed by XRPD to give an indication of form stability.
The saturate isolated from the previous thermal cycling experiment was left to evaporate at room temperature. Any solids returned from evaporation were analysed by XRPD.
16×20 mg of farudodstat sample was weighed into 2 mL bead mill vials and then milled to prepare amorphous material. To the bead milled sample, appropriate solvent was added in 100 μL aliquots until a mobile slurry was obtained without any dissolution observed. Between additions, the samples were stirred at 50° C. and 100° C. depending upon the boiling point of the solvent to dissolve the API in the solvent system. Samples were checked and slurries were isolated by centrifugation ([…] Nylon filters) and the saturates were put in an HPLC vials. Next, the vials were uncapped and were left to evaporate at 50° C. using a water bath. Finally, after the complete evaporation of solvent, the remaining solid were analysed by XRPD to check for appearance of any new patterns.
20 mg×5 of farudodstat sample was weighed into 2 ml bead mill vials and milled to prepare amorphous material. To the bead milled sample, appropriate solvent was added in 100 μL aliquots until a mobile slurry was obtained without any dissolution observed. Between additions, the samples were stirred at 100° C. to dissolve the API in the solvent system. Samples were checked and slurries were isolated by centrifugation (0.22 μm Nylon filters) and the saturates were put in an HPLC vials. The vials were then uncapped and were left to evaporate at 100° C. using a sand bath. After the complete evaporation of solvent, the remaining solid were analysed by XRPD to check for appearance of any new patterns.
20 mg×16 farudodstat sample was weighed into 2 ml bead mill vials and milled to prepare amorphous material. The appropriate solvent was added in 100 μL aliquots until a mobile slurry was obtained without any dissolution observed. […]

A short description of series [2]: Form stability of DSP polymorph after processing/recrystallisation (XRPD, DSC, TGA). The protocol: The farudodstat DSP polymorph was characterized using X-ray powder diffraction (XRPD), differential scanning calorimetry (DSC), thermogravimetric analysis, (TGA) and polarized light microscopy (PLM). Then it was subjected to various recrystallisation and analysis to confirm it was a DSP polymorph.
The suspensions of the DSP polymorph were prepared in different single solvents and mixed solvents (see Table 4 below). After this the samples were kept shaking for 72 hrs at 25° C. and 50° C. before they were centrifuged at 14,000 rpm for 10 mins until solid material was separated from the supernatant. The centrifuged samples were investigated by XRPD. The samples were dried under vacuum conditions at 40° overnight and investigated by XRPD, DSC and TGA if new XRPD patterns were found.
The farudodstat DSP polymorph was subject to processing or treated to test the physical stability of the form.
50 mg of the DSP polymorph was dissolved in the selected solvents (see Table 4) according to the solubility results to form saturated solutions. Next, the anti-solvent was slowly added into the solution under stirring until the precipitation formed. If there was no solid precipitation at room temperature, the sample was transferred into the freezer and stored at −20° C. After this, the slurries were stirred for 24 hours before they were centrifuged at 14,000 rpm for 10 mins, until solid material was separated from the supernatant. The centrifuged samples were investigated by XRPD. The samples were next dried under vacuum conditions at 40° C. overnight. If crystalline XRPD patterns were found, the samples were further investigated by XRPD, DSC and TGA.
Due to the high solubility of the DSP polymorph in some solvents (see Table 4), these solvents were chosen for the evaporation test. The solutions were prepared according to the solubility of the compound and were kept open at room temperature to let the solvents evaporate to form crystals. After evaporation was complete, the dried solids were collected and investigated by XRPD. Further tests were performed on DSC and TGA if new XRPD patterns were found.
10-30 mg of the original form of ASLAN003 was loaded into glass vials and placed in a thermomixer at either 60° C. or 50° C. After this, the selected solvents (see Table 4) were slowly added to the samples until the compound was completely dissolved. Next, the samples were transferred into the Crystal 16 crystallizer and the cooled to 0° C. at a rate of 0.5° C./min, before they were held at 0° C. for 24 hrs. If there was no solid precipitation at 0° C., the sample was transferred into a freezer at −20° C. […]
Two samples from Example 4: • 1. […] THF with water by antisolvent were further characterized after drying under vacuum conditions at 40° C. overnight and evaluated.

Series [3] is described as follows: Approximate solubility by manual dilution combined with visual observation. The settings on record: thermodynamic from solid. The protocol:
The approximate solubility was tested at room temperature by manual dilution combined with visual observation. The solubility of material in different single and mixed solvents was determined at the concentration once no particles of farudodstat could be visually observed in solvents.

Series [4] can be described thus: Characterisation of new polymorphs: XRPD before and after drying/grinding. The protocol:
500 μL 1,1,1.3.3.3-Hexafluoro-2-Propanol was added to 20 mg of amorphous farudodstat DSP polymorph in a 1.5 mL of HPLC vial equipped with a magnetic stirring bar, resulting in formation of a mobile slurry. The slurry was isothermally stirred for 2 weeks at 40° C. An additional 20 mg of material was added to the slurry as it became a clear solution after one week. Solids were isolated by centrifugation using a […] Nylon filter, and were analysed without any further drying by XRPD, TGA and 1H NMR (proton nuclear magnetic resonance). Finally, the samples were dried at 40° C. for 4 hrs and then reanalysed by XRPD.
350 μL of N-Methylpyrrolidone (NMP) was added to 20 mg of amorphous farudodstat DSP polymorph in a 1.5 mL HPLC vial equipped with a magnetic stirring bar to prepare a mobile slurry. The resulting slurry was thermally cycled for 3 days between 5-40° C. (Ramp rate: 0.1° C./min with isothermal holds of 1 hour at 40° C. and 5° C.). The saturated solution was then evaporated at 100° C., before the solids were analysed by XRPD.

Entries after “also recorded” stand apart in the source; their conditions may differ. Like-named read-outs stand apart in the source and are kept apart here.

Usually solubility stands for how much of the substance goes into solution per volume. For the compound `COc1cccc(-c2cc(F)c(Nc3ncccc3C(=O)O)c(F)c2)c1` [farudodstat DSP polymorph, 2-(3,5-difluoro-3′methoxybiphenyl-4-ylamino)nicotinic acid], in series [1], the “Overall stability of polymorph” value is reported as “highly stable; also recorded: high stability”. Moreover, in series [2] (after heating to 200° C.), the “Weight loss on heating” value is “minimum weight loss”. In addition, the “Form found in screening experiments” value in series [2] (all experiments of Table 4 (anti-solvent, grinding, crystallization, drying, milling, heating/cooling, slurry, evaporation)) is recorded as “predominant form”. Moreover, in series [2] (recrystallized from a number of solvents), the Stability on recrystallisation result was “stable and reproducible”. Moreover, the Polymorph stability entry in series [2] (samples from THF evaporation and THF-water antisolvent, dried under vacuum at 40° C. overnight) is “stable”. Also, the solubility in series [3] (11 organic solvents/mixed solvents, organic solvent or mixture, read-out: relatively poor solubility) is below 10000 µg/mL; in series [3] (organic solvent or mixture, Acetone:Dichloromethane (1:1), room temperature, read-out: Solubility), below 1580 µg/mL; in series [3] (organic solvent or mixture, Acetone:Dichloromethane (3:1), room temperature, read-out: Solubility), below 1900 µg/mL; in series [3] (organic solvent or mixture, CHCl3, room temperature, read-out: Solubility) it was below 570 µg/mL; in series [3] (organic solvent or mixture, Cyclohexane, room temperature, read-out: Solubility) it was below 490 µg/mL; in series [3] (organic solvent or mixture, Dichloromethane, room temperature, read-out: Solubility), below 600 µg/mL. For the same compound, the solubility was below 810 µg/mL in series [3] (organic solvent or mixture, Heptane, room temperature, read-out: Solubility); below 1510 µg/mL in series [3] (organic solvent or mixture, THF-Heptane (1:1), room temperature, read-out: Solubility); below 530 µg/mL in series [3] (organic solvent or mixture, Toluene, room temperature, read-out: Solubility); above 100000 µg/mL in series [3] (organic solvent or mixture, some solvents, room temperature, read-out: High solubility); below 530 µg/mL in series [3] (Water, room temperature, read-out: Solubility).
Consider `COc1cccc(-c2cc(F)c(Nc3ncccc3C(=O)O)c(F)c2)c1` [NMP polymorph], for which the “Stability of polymorphic form” value in series [4] is listed as “unstable/metastable”. Moreover, the Form after drying result in series [4] (drying at 40° C. for 4 hours) is listed as “conversion of Pattern 3 back to Pattern 1”. Further, in series [4] (gentle grinding), the “XRPD after gentle grinding” value is on record as “did not change the pattern observed”.

The record behind these values is patent US20250145570A1, “DHODH INHIBITOR POLYMORPH” (Aslan Pharmaceuticals Pte Ltd, priority 2022, published 2025).
